Holding throughout (assay type): biochemical
The target in test [1] is T1, PIP4K 2A (Homo sapiens, UniProt P48426).
T1 sequence (P48426 1-406): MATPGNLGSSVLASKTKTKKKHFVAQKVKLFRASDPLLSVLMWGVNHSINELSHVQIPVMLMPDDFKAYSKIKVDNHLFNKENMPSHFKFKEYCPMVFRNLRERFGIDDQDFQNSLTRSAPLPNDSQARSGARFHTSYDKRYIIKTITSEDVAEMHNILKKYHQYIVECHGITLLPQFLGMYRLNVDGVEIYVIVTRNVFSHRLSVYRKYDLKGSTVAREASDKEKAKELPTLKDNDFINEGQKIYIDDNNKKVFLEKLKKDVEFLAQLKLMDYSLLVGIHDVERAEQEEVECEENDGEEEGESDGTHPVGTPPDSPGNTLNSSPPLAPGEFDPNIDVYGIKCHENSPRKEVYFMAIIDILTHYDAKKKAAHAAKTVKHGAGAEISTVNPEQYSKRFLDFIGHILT
The experiment in a line: Kinase Assay PIP4K2 A (PIP4KtypeIIA inhibition assay). Also on record: made in house; host or cells: E. coli. The settings on record: compounds listed under IC50 bin headings. Put shortly: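 GST-tagged enzyme from E. coli at 0.5 nM final was preincubated with compound for 1 h at 27 C, then reacted with 10 uM ATP, 80 uM PI5P and DOPE carrier in 50 mM HEPES pH 7.3, 5% DMSO. After 1 h, ADP was measured by ADP-Glo luminescence against a calibration curve. IC50 was fitted from % residual activity.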

Another test concerns the target T2, PIP4K2B (Homo sapiens, UniProt P78356).
T2 construct: made in house; host or cells: E. coli
T2 sequence (P78356 1-416): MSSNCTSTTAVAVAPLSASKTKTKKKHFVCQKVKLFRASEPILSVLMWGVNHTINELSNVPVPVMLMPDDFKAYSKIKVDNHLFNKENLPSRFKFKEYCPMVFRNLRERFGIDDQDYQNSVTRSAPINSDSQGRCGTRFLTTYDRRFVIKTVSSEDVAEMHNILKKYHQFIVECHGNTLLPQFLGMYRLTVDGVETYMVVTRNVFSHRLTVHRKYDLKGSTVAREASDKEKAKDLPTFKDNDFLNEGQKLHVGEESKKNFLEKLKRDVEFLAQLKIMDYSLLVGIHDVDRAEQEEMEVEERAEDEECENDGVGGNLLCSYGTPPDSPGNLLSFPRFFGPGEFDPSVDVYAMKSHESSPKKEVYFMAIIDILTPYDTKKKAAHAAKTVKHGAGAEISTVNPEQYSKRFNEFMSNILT
Kind of test: Trans-FI P kinase assay PIP4K2B (PIP4KtypeIIB inhibition assay). The settings on record: compounds listed under IC50 bin headings; 100 uM GTP; read-out: Trans-FI P kinase assays: PIP4K2B IC50. Summed up:
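Transcreener FI fluorescence read-out of GDP formed by E. coli-expressed GST-PIP4K2B (5 nM) using 100 uM GTP and 80 uM PI5P with DOPE carrier lipid, pH 7.3, 2 h reaction. Compounds (up to 4.8 uM) were preincubated with enzyme 1 h at 27 C; IC50 fitted from residual activity relative to no-inhibitor control.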

For test [2], the target named is T1, PIP4K 2A. Kind of test: ADP-glo kinase assay PIP4K 2A. Also on record: 4 nM PIP4K2A (full length protein, SignalChem); purchased SignalChem. As to conditions: compounds listed under IC50 bin headings. Summed up:
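Inhibition was calculated versus DMSO controls from ADP-Glo luminescence and fitted to IC50 over a 10-point, threefold series. Compound was first pre-incubated 15 min at room temperature with PIP4K2A (full-length; 4 nM in the enzyme/substrate mix) and PI(5)P diC8 (100 μM in that mix). The reaction then ran for 1 h after adding 60 μM ATP solution, in MOPS pH 7.2/MgCl2/Tween buffer.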

In general, IC50 refers to the point on the concentration scale where inhibition reaches its midpoint. For the molecule `C[C@H]1Oc2cc(N3CCCC3=O)ccc2-c2cnc(Nc3cnc4c(c3)N3C(=O)CC[C@H]3CO4)cc21` [Example 192, (S)-2-(((R)-5-methyl-8-(2-oxopyrrolidin-1-yl)-5H-chromeno[4,3-c]pyridin-3-yl)amino)-6,6a,7,8-tetrahydro-9H-pyrido[2,3-b]pyrrolo[1,2-d][1,4]oxazin-9-one], the IC50 was at most 0.001 µM against PIP4K 2A [1], 0.01 to 0.1 µM at PIP4K2B and at most 0.001 µM on PIP4K 2A [2].
Take `CC1Oc2cc(C(=O)N(C)C)ccc2-c2cnc(Nc3cncc(N4CCCC4=O)c3)cc21` (stereo not drawn) [Example 32, N,N,5-trimethyl-3-((5-(2-oxopyrrolidin-1-yl)pyridin-3-yl)amino)-5H-chromeno[4,3-c]pyridine-8-carboxamide]: the half-maximal inhibitory concentration (IC50) was at most 0.001 µM on PIP4K 2A [1], 0.01 to 0.1 µM on PIP4K2B and 0.001 to 0.01 µM on PIP4K 2A [2].
The matching figures for `CC1Oc2cc(N3CCCC3=O)ccc2-c2cnc(Nc3cncc(N4CCN(Cc5cscn5)C4=O)c3)cc21` (stereo not drawn) [Example 56, 1-(5-((5-methyl-8-(2-oxopyrrolidin-1-yl)-5H-chromeno[4,3-c]pyridin-3-yl)amino)pyridin-3-yl)-3-(thiazol-4-ylmethyl)imidazolidin-2-one]: at most 0.001 µM, 0.001 to 0.01 µM and at most 0.001 µM.
In the same order, the values of `CC1Oc2cc(C(=O)N(C)C)ccc2-c2cnc(Nc3cnc4c(c3)N3C(=O)CC[C@H]3CO4)cc21` (stereo partly drawn) [Example 33, N,N,5-trimethyl-3-(((S)-9-oxo-6a,7,8,9-tetrahydro-6H-pyrido[2,3-b]pyrrolo[1,2-d][1,4]oxazin-2-yl)amino)-5H-chromeno[4,3-c]pyridine-8-carboxamide] are at most 0.001 µM, 0.001 to 0.01 µM and 0.001 to 0.01 µM.
The matching figures for `CC(O)C(=O)N1CCOc2ncc(Nc3cc4c(cn3)-c3ccc(N5CCCC5=O)cc3OC4C)cc21` (stereo not drawn) [Example 60, 1-(3-((1-(2-hydroxypropanoyl)-2,3-dihydro-1H-pyrido[2,3-b][1,4]oxazin-7-yl)amino)-5-methyl-5H-chromeno[4,3-c]pyridin-8-yl)pyrrolidin-2-one]: at most 0.001 µM, 0.001 to 0.01 µM and at most 0.001 µM.
For the molecule `CC1Oc2cc(N3CCCC3=O)ccc2-c2cnc(Nc3cncc(Nc4cccnn4)c3)cc21` (stereo not drawn) [Example 131, 1-(5-methyl-3-((5-(pyridazin-3-ylamino)pyridin-3-yl)amino)-5H-chromeno[4,3-c]pyridin-8-yl)pyrrolidin-2-one], the figures for the IC50 on PIP4K 2A [1], at PIP4K2B and at PIP4K 2A [2] were at most 0.001 µM, 0.01 to 0.1 µM and 0.001 to 0.01 µM, respectively.
In the same order, the values of `CC(C)S(=O)(=O)N1CCOc2ncc(Nc3cc4c(cn3)-c3ccc(N5CCCC5=O)cc3OC4)cc21` [Example 79, 1-(3-((1-(isopropylsulfonyl)-2,3-dihydro-1H-pyrido[2,3-b][1,4]oxazin-7-yl)amino)-5H-chromeno[4,3-c]pyridin-8-yl)pyrrolidin-2-one] are at most 0.001 µM, 0.01 to 0.1 µM and 0.001 to 0.01 µM.
The matching figures for `CC1Oc2cc(N3CCCC3=O)ccc2-c2cnc(Nc3cncc(C(F)(F)F)c3)cc21` (stereo not drawn) [Example 81, 1-(5-methyl-3-((5-(trifluoromethyl)pyridin-3-yl)amino)-5H-chromeno[4,3-c]pyridin-8-yl)pyrrolidin-2-one]: 0.01 to 0.1 µM, above 1 µM and 0.1 to 1 µM.
The matching figures for `CC1Oc2cc(N3CCCC3=O)ccc2-c2cnc(Nc3cncc(N4CCOCC4=O)c3)cc21` (stereo not drawn) [Example 95, 4-(5-((5-methyl-8-(2-oxopyrrolidin-1-yl)-5H-chromeno[4,3-c]pyridin-3-yl)amino)pyridin-3-yl)morpholin-3-one]: 0.001 to 0.01 µM, 0.1 to 1 µM and 0.01 to 0.1 µM.
Turning to `CC1Oc2cc(N3CCCC3=O)ccc2-c2cnc(Nc3cncc(N(C)S(C)(=O)=O)c3)cc21` (stereo not drawn) [Example 48, N-methyl-N-(5-((5-methyl-8-(2-oxopyrrolidin-1-yl)-5H-chromeno[4,3-c]pyridin-3-yl)amino)pyridin-3-yl)methanesulfonamide], the IC50 was in the range of 0.001 to 0.01 µM against PIP4K 2A [1], 0.1 to 1 µM on PIP4K2B and 0.001 to 0.01 µM at PIP4K 2A [2].
Take `CN(C)C(=O)c1ccc2c(c1)OC(C1CC1)c1cc(Nc3cccnc3)ncc1-2` (stereo not drawn) [Example 34, 5-cyclopropyl-N,N-dimethyl-3-(pyridin-3-ylamino)-5H-chromeno[4,3-c]pyridine-8-carboxamide]: the half-maximal inhibitory concentration (IC50) fell in the range of 0.001 to 0.01 µM on PIP4K 2A [1], 0.01 to 0.1 µM at PIP4K2B and 0.001 to 0.01 µM against PIP4K 2A [2].
With `CC1c2cc(Nc3cnc4c(c3)OCCO4)ncc2-c2ccc(N3CCCC3=O)cc2N1C` (stereo not drawn) [Example 45, 1-(3-((2,3-dihydro-[1,4]dioxino[2,3-b]pyridin-7-yl)amino)-5,6-dimethyl-5,6-dihydrobenzo[c][2,6]naphthyridin-8-yl)pyrrolidin-2-one], the 50% inhibitory concentration (IC50) against PIP4K 2A [1] was 0.001 to 0.01 µM; at PIP4K2B it was 0.1 to 1 µM; against PIP4K 2A [2] it was 0.01 to 0.1 µM.
The matching figures for `CC1Oc2cc(N3CCCC3=O)c(F)cc2-c2cnc(Nc3cccnc3)cc21` (stereo not drawn) [Example 46, 1-(9-fluoro-5-methyl-3-(pyridin-3-ylamino)-5H-chromeno[4,3-c]pyridin-8-yl)pyrrolidin-2-one]: 0.001 to 0.01 µM, 0.1 to 1 µM and 0.01 to 0.1 µM.
In the same order, the values of `COC(=O)N1CCOc2ncc(Nc3cc4c(cn3)-c3ccc(N5CCCC5=O)cc3OC4C)cc21` (stereo not drawn) [Example 83, methyl 7-((5-methyl-8-(2-oxopyrrolidin-1-yl)-5H-chromeno[4,3-c]pyridin-3-yl)amino)-2,3-dihydro-1H-pyrido[2,3-b][1,4]oxazine-1-carboxylate] are at most 0.001 µM, 0.001 to 0.01 µM and at most 0.001 µM.
Consider `CC1Oc2cc(C(=O)N(C)C)ccc2-c2cnc(Nc3cccnc3)cc21` (stereo not drawn) [Example 31, N,N,5-trimethyl-3-(pyridin-3-ylamino)-5H-chromeno[4,3-c]pyridine-8-carboxamide], for which the IC50 at PIP4K 2A [1] is 0.001 to 0.01 µM; on PIP4K2B it was 0.1 to 1 µM; on PIP4K 2A [2], 0.001 to 0.01 µM.
As for `CC1Oc2cc(N3CCCC3=O)ccc2-c2cnc(Nc3cncc(NC(=O)c4cccc(N)c4)c3)cc21` (stereo not drawn) [Example 106, 3-amino-N-(5-((5-methyl-8-(2-oxopyrrolidin-1-yl)-5H-chromeno[4,3-c]pyridin-3-yl)amino)pyridin-3-yl)benzamide], the figures for the IC50 on PIP4K 2A [1], on PIP4K2B and against PIP4K 2A [2] were at most 0.001 µM, 0.01 to 0.1 µM and 0.001 to 0.01 µM, respectively.
In the same order, the values of `O=C1CCCN1c1ccc2c(c1)OCc1cc(Nc3cnc4c(c3)N(S(=O)(=O)C3CC3)CCO4)ncc1-2` [Example 74, 1-(3-((1-(cyclopropylsulfonyl)-2,3-dihydro-1H-pyrido[2,3-b][1,4]oxazin-7-yl)amino)-5H-chromeno[4,3-c]pyridin-8-yl)pyrrolidin-2-one] are at most 0.001 µM, 0.001 to 0.01 µM and 0.001 to 0.01 µM.
The matching figures for `COC(=O)N1CCOc2ncc(Nc3cc4c(cn3)-c3ccc(C(=O)N(C)C)cc3OC4C)cc21` (stereo not drawn) [Example 69, methyl 7-((8-(dimethylcarbamoyl)-5-methyl-5H-chromeno[4,3-c]pyridin-3-yl)amino)-2,3-dihydro-1H-pyrido[2,3-b][1,4]oxazine-1-carboxylate]: at most 0.001 µM, 0.001 to 0.01 µM and at most 0.001 µM.
The matching figures for `COc1ncc(Nc2cc3c(cn2)-c2ccc(N4CCCC4=O)cc2OC3C)cc1N(C)S(C)(=O)=O` (stereo not drawn) [Example 90, N-(2-methoxy-5-((5-methyl-8-(2-oxopyrrolidin-1-yl)-5H-chromeno[4,3-c]pyridin-3-yl)amino)pyridin-3-yl)-N-methylmethanesulfonamide]: 0.001 to 0.01 µM, 0.1 to 1 µM and 0.01 to 0.1 µM.

(Values after patent US11584763B2, “Chromenopyridine derivatives as phosphatidylinositol phosphate kinase inhibitors” (HIBERCELL, INC., priority 2017, dated 2023).)
